From patent publication US8114880B2, “Piperidine or piperazine substituted tetrahydro-naphthalene-1-carboxylic acid MTP inhibiting compounds” (Janssen Pharmaceutica N.V., priority 2006, dated 2012) come the findings set out here.

Some results are limits rather than exact numbers.

One series deals with HepG2 cells. The series is described as follows: Quantification of the secretion of ApoB. In kind it is cell-based. The settings on record: Homo sapiens, HepG2, 24 h, 24 hours of incubation, pIC50 = -log IC50. In a few lines:
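At 70% confluency, HepG2 cells received compound (0.4% DMSO final) for 24 h. Secreted apoB in cleared medium was immunoprecipitated with sheep anti-apoB then rabbit anti-sheep antibody (24 h each at 8° C.), and pellet radioactivity was counted by scintillation. IC50 values were expressed as pIC50.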

The target in a further series is MTP (Homo sapiens, UniProt P55157). The experiment in a line: MTP assay (triglyceride transfer from donor to acceptor vesicles). Type of series: biochemical. The settings on record: MTP activity, percent triglyceride transfer from donor to acceptor vesicles, 37° C. In a few lines:
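Radiolabelled triglyceride transfer from donor vesicles (phosphatidylcholine, 7.5 mol % cardiolipin, 0.25 mol % glycerol tri[1-^14C]-oleate) to phosphatidylcholine acceptor vesicles with BSA, pH 7.5 Tris buffer; compounds in DMSO (0.13% final), 5 min preincubation at 37° C before MTP addition. Donor vesicles removed on DEAE-52; acceptor-supernatant ^14C counts give percent transfer.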

Chain of MTP (P55157 19-894, species assumed): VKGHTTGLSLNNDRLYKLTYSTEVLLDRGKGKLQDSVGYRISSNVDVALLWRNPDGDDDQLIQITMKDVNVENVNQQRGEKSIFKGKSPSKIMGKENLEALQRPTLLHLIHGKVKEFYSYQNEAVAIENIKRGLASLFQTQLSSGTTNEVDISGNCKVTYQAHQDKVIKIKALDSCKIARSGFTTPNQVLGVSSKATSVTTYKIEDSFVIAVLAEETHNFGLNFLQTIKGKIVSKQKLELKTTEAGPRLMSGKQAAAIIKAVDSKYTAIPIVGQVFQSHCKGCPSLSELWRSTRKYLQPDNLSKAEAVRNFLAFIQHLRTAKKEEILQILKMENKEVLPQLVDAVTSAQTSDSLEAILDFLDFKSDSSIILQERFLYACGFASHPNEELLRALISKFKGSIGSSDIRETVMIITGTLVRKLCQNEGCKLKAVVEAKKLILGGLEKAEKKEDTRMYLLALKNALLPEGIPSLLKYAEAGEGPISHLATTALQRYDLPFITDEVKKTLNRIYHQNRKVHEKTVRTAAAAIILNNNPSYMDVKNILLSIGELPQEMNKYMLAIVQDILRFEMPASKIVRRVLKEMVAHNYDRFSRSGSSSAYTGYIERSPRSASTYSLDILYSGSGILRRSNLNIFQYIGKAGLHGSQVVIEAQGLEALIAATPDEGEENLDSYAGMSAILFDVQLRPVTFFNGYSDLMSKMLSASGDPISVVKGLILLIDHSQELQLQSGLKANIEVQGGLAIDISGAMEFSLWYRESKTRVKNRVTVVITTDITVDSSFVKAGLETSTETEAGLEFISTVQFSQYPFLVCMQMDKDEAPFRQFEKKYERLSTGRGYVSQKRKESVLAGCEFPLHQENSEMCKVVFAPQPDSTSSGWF
Chain of MTP (P07237 18-508 partner, species assumed): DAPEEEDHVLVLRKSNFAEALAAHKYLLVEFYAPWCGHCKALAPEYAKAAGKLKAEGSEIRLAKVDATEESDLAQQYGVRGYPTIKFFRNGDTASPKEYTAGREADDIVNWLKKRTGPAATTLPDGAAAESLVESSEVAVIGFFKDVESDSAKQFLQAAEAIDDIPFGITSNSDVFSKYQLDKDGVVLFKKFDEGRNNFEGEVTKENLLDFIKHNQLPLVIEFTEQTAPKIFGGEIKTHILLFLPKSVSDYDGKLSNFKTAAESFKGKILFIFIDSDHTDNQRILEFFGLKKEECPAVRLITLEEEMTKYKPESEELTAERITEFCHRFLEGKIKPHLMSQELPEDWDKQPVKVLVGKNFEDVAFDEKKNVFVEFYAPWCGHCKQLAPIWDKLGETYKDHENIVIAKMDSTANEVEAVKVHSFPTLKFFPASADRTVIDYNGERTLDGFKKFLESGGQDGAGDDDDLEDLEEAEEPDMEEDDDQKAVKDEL

What is called IC50 is the point on the concentration scale where inhibition reaches its midpoint. A lower IC50 goes with inhibition by little substance. The term melting point denotes the temperature, or range, at which the solid turns liquid. In turn, `CCOC(=O)[C@]1(c2ccccc2)CC[C@@H](C(=O)N2CCC(NC(=O)c3ccccc3)CC2)c2ccccc21` (racemic) [Co. No. 25] came in with a melting point of 112 to 115 °C. In the series with HepG2 cells, it took 15 nM to reach half-maximal inhibition (IC50). This compound gave an IC50 on MTP of 3.85 nM.

As to `C=CCOC(=O)[C@]1(c2ccccc2)CC[C@@H](C(=O)N2CCC(NC(=O)c3ccccc3)CC2)c2ccccc21` [Co. No. 13], the melting point lay in the range of 103 to 107 °C. The compound further gave an IC50 in the series with HepG2 cells of 28.8 nM. In addition, half-maximal inhibition on MTP (IC50) was put at 6.05 nM.

With `CCOC(=O)[C@H](CCCCNC(=O)OC(C)(C)C)NC(=O)[C@@]1(c2ccccc2)CC[C@H](C(=O)N2CCC(NC(=O)c3cccn(C)c3=O)CC2)c2ccccc21` [Co. No. 231], the results for the IC50 with HepG2 cells and on MTP were greater than 1000 nM and greater than 100 nM, respectively.

For `CCOC(=O)NCCCC[C@H](NC(=O)[C@@]1(c2ccccc2)CC[C@H](C(=O)N2CCC(NC(=O)c3cccn(C)c3=O)CC2)c2ccccc21)C(=O)OC(C)C` [Co. No. 233], the IC50 in the series on HepG2 cells is greater than 1000 nM; against MTP it was 117 nM.

As to `CC(C)OC(=O)NCCCC[C@H](NC(=O)[C@@]1(c2ccccc2)CC[C@H](C(=O)N2CCC(NC(=O)c3cccn(C)c3=O)CC2)c2ccccc21)C(=O)OC(C)C` [Co. No. 235], the IC50 in the series on HepG2 cells is greater than 1000 nM; against MTP, 109 nM.

For the compound `CCCOC(=O)CCCCCNC(=O)[C@@]1(c2ccccc2)CC[C@H](C(=O)N2CCC(NC(=O)c3ccccc3OC)CC2)c2ccccc21` [Co. No. 246], the IC50 is 234 nM with HepG2 cells and 3.87 nM at MTP.

Regarding `CCCOC(=O)CC[C@H](NC(=O)[C@@]1(c2ccccc2)CC[C@H](C(=O)N2CCC(NC(=O)c3ccccc3OC)CC2)c2ccccc21)C(=O)OCCC` [Co. No. 247], the IC50 was 382 nM in the series on HepG2 cells and 5.96 nM against MTP.

`COc1ccccc1C(=O)NC1CCN(C(=O)[C@H]2CC[C@@](C(=O)N[C@@H](CCC(=O)OC(C)C)C(=O)OC(C)C)(c3ccccc3)c3ccccc32)CC1` [Co. No. 248]: the IC50 in the series with HepG2 cells was 184 nM; on MTP, 6.61 nM.

As for `CCCOC(=O)CCCNC(=O)[C@@]1(c2ccccc2)CC[C@H](C(=O)N2CCC(NC(=O)c3ccccc3OC)CC2)c2ccccc21` [Co. No. 249], the concentration for half-maximal inhibition (IC50) in the series with HepG2 cells was 586 nM; on MTP, 2.64 nM.

With `COc1ccccc1C(=O)NC1CCN(C(=O)[C@H]2CC[C@@](C(=O)NCCCC(=O)OC(C)C)(c3ccccc3)c3ccccc32)CC1` [Co. No. 250], the IC50 in the series on HepG2 cells is 343 nM; on MTP, 1.79 nM.

As to `CCOC(=O)[C@]1(c2ccccc2)CC[C@@H](C(=O)N2CCC(NC(=O)c3ccccc3N3CCOCC3)CC2)c2ccccc21` [Co. No. 252], the results for the IC50 in the series on HepG2 cells and against MTP were 3.52 nM and 2.49 nM, respectively.

For the compound `CCOC(=O)[C@@]1(c2ccccc2)CC[C@H](C(=O)N2CCC(NC(=O)c3cccnc3OC)CC2)c2ccccc21` [Co. No. 253], the IC50 in the series with HepG2 cells is 3.24 nM; on MTP, 0.984 nM.

On to `COC(=O)CCNC(=O)[C@@]1(c2ccccc2)CC[C@H](C(=O)N2CCC(NC(=O)c3cccnc3OC)CC2)c2ccccc21` [Co. No. 254], for which the IC50 in the series with HepG2 cells is 17.1 nM; on MTP it was 3 nM.

Regarding `COC(=O)CCNC(=O)[C@@]1(c2ccccc2)CC[C@H](C(=O)N2CCC(NC(=O)c3cccnc3O)CC2)c2ccccc21` [Co. No. 255], the results for the IC50 in the series with HepG2 cells and against MTP were greater than 1000 nM and 585 nM, respectively.

Regarding `COC(=O)CCNC(=O)[C@]1(c2ccccc2)CC[C@@H](C(=O)N2CCC(NC(=O)c3ccccc3OC)CC2)c2ccccc21` [Co. No. 256], the IC50 in the series on HepG2 cells and against MTP was greater than 1000 nM throughout.

As to `COc1ccccc1C(=O)NC1CCN(C(=O)[C@@H]2CC[C@](C(=O)NCCC(=O)OC(C)C)(c3ccccc3)c3ccccc32)CC1` [Co. No. 257], the IC50 in the series with HepG2 cells and against MTP was greater than 1000 nM each time.

As to `COc1ncccc1C(=O)NC1CCN(C(=O)[C@H]2CC[C@@](C(=O)NCCC(=O)O)(c3ccccc3)c3ccccc32)CC1` [Co. No. 258], the IC50 was greater than 1000 nM in the series on HepG2 cells and 1800 nM at MTP.

As to `CCCOC(=O)[C@]1(c2ccccc2)CC[C@@H](C(=O)N2CCC(NC(=O)c3ccccc3N3CCOCC3)CC2)c2ccccc21` [Co. No. 260], the half-maximal inhibitory concentration (IC50) in the series on HepG2 cells is 6.34 nM; against MTP, 3.64 nM.

Regarding `COc1ncccc1C(=O)NC1CCN(C(=O)[C@@H]2CC[C@](C(=O)NCCC(=O)OC(C)C)(c3ccccc3)c3ccccc32)CC1` [Co. No. 261], the figures for the IC50 in the series with HepG2 cells and at MTP were greater than 1000 nM and 757 nM, respectively.

In the case of `COC(=O)CCNC(=O)[C@]1(c2ccccc2)CC[C@@H](C(=O)N2CCC(NC(=O)c3cccnc3OC)CC2)c2ccccc21` [Co. No. 262], the IC50 in the series on HepG2 cells and at MTP was greater than 1000 nM throughout.

Regarding `COC(=O)CCNC(=O)[C@]1(c2ccccc2)CC[C@@H](C(=O)N2CCC(NC(=O)c3ccccc3N3CCOCC3)CC2)c2ccccc21` [Co. No. 263], the figures for the IC50 in the series with HepG2 cells and against MTP were 64.4 nM and 15.7 nM, respectively.

On to `C=CCOC(=O)[C@@]1(c2ccccc2)CC[C@H](C(=O)N2CCC(NC(=O)c3cccnc3OC)CC2)c2ccccc21` [Co. No. 266], for which the IC50 was 2.04 nM in the series on HepG2 cells and 0.966 nM against MTP.

On to `COC(=O)CCNC(=O)[C@@]1(c2ccccc2)CC[C@H](C(=O)N2CCC(NC(=O)c3ccccc3N3CCN(C)CC3)CC2)c2ccccc21` [Co. No. 272], for which the IC50 was 670 nM in the series on HepG2 cells and 50.9 nM at MTP.

`CCOC(=O)[C@@]1(c2cccc(F)c2)CC[C@@H](C(=O)N2CCC(NC(=O)c3ccccc3OC)CC2)c2cc(F)ccc21` [Co. No. 273]: the results for the IC50 with HepG2 cells and against MTP were 1000 nM and 165 nM, respectively.

Take `CCOC(=O)[C@@]1(c2ccccc2)CC[C@H](C(=O)N2CCC(NC(=O)c3cccnc3OC(C)C)CC2)c2ccccc21` [Co. No. 274]: the IC50 in the series with HepG2 cells was 17.3 nM; against MTP it was 4.69 nM.

For `COc1ccccc1C(=O)NC1CCN(C(=O)[C@H]2CC[C@](C(=O)NCCC(=O)OC(C)C)(c3ccc(Br)cc3)c3cc(Br)ccc32)CC1` [Co. No. 275], the IC50 with HepG2 cells and against MTP was greater than 1000 nM throughout.

As to `CC(C)OC(=O)CCNC(=O)[C@@]1(c2ccccc2)CC[C@H](C(=O)N2CCC(NC(=O)c3ccccc3N3CCN(C)CC3)CC2)c2ccccc21` [Co. No. 276], the 50% inhibitory concentration (IC50) in the series with HepG2 cells was 75.2 nM; at MTP, 3.49 nM.

With `CC(C)OC(=O)CCNC(=O)[C@@]1(c2ccccc2)CC[C@H](C(=O)N2CCC(NC(=O)c3cccnc3N3CCN(C)CC3)CC2)c2ccccc21` [Co. No. 277], the IC50 in the series on HepG2 cells is 108 nM; against MTP, 11.4 nM.

As to `CCCOC(=O)CCNC(=O)[C@@]1(c2ccccc2)CC[C@H](C(=O)N2CCC(NC(=O)c3ccccc3OC)CC2)c2ccccc21` [Co. No. 279], the IC50 was 14.1 nM in the series with HepG2 cells and 1.5 nM against MTP.

As to `COc1ncccc1C(=O)NC1CCN(C(=O)[C@H]2CC[C@@](C(=O)NCCC(=O)OC(C)C)(c3ccccc3)c3ccccc32)CC1` [Co. No. 280], the IC50 with HepG2 cells is 3.82 nM; at MTP, 0.82 nM.
